# Assay results reported in patent US11214565B2, “Compound, compositions, and methods” (Denali Therapeutics Inc., priority 2015, dated 2022).
# Target: LRRK2 G2019S enzyme (Homo sapiens (Human), UniProt Q5S007, G2019S)
# Test: LRRK2 G2019S TR-FRET biochemical kinase assay (LRRKtide substrate)
# Settings: Table D-4; 5 nM LRRK2, 134 μM ATP, 60 minute reaction, 23° C.
# How it was run: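 TR-FRET phospho-LRRKtide readout (2 nM antibody, 10 mM EDTA, 60 min) after a 60 min, 23 °C kinase reaction. The reaction used 134 μM ATP and 5 nM enzyme in pH 7.5 Tris/MgCl2/EGTA/DTT buffer, with compound and enzyme-substrate mix preincubated for 20 min beforehand.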
# Sequence of LRRK2 G2019S enzyme (Q5S007 whole entry G2019S): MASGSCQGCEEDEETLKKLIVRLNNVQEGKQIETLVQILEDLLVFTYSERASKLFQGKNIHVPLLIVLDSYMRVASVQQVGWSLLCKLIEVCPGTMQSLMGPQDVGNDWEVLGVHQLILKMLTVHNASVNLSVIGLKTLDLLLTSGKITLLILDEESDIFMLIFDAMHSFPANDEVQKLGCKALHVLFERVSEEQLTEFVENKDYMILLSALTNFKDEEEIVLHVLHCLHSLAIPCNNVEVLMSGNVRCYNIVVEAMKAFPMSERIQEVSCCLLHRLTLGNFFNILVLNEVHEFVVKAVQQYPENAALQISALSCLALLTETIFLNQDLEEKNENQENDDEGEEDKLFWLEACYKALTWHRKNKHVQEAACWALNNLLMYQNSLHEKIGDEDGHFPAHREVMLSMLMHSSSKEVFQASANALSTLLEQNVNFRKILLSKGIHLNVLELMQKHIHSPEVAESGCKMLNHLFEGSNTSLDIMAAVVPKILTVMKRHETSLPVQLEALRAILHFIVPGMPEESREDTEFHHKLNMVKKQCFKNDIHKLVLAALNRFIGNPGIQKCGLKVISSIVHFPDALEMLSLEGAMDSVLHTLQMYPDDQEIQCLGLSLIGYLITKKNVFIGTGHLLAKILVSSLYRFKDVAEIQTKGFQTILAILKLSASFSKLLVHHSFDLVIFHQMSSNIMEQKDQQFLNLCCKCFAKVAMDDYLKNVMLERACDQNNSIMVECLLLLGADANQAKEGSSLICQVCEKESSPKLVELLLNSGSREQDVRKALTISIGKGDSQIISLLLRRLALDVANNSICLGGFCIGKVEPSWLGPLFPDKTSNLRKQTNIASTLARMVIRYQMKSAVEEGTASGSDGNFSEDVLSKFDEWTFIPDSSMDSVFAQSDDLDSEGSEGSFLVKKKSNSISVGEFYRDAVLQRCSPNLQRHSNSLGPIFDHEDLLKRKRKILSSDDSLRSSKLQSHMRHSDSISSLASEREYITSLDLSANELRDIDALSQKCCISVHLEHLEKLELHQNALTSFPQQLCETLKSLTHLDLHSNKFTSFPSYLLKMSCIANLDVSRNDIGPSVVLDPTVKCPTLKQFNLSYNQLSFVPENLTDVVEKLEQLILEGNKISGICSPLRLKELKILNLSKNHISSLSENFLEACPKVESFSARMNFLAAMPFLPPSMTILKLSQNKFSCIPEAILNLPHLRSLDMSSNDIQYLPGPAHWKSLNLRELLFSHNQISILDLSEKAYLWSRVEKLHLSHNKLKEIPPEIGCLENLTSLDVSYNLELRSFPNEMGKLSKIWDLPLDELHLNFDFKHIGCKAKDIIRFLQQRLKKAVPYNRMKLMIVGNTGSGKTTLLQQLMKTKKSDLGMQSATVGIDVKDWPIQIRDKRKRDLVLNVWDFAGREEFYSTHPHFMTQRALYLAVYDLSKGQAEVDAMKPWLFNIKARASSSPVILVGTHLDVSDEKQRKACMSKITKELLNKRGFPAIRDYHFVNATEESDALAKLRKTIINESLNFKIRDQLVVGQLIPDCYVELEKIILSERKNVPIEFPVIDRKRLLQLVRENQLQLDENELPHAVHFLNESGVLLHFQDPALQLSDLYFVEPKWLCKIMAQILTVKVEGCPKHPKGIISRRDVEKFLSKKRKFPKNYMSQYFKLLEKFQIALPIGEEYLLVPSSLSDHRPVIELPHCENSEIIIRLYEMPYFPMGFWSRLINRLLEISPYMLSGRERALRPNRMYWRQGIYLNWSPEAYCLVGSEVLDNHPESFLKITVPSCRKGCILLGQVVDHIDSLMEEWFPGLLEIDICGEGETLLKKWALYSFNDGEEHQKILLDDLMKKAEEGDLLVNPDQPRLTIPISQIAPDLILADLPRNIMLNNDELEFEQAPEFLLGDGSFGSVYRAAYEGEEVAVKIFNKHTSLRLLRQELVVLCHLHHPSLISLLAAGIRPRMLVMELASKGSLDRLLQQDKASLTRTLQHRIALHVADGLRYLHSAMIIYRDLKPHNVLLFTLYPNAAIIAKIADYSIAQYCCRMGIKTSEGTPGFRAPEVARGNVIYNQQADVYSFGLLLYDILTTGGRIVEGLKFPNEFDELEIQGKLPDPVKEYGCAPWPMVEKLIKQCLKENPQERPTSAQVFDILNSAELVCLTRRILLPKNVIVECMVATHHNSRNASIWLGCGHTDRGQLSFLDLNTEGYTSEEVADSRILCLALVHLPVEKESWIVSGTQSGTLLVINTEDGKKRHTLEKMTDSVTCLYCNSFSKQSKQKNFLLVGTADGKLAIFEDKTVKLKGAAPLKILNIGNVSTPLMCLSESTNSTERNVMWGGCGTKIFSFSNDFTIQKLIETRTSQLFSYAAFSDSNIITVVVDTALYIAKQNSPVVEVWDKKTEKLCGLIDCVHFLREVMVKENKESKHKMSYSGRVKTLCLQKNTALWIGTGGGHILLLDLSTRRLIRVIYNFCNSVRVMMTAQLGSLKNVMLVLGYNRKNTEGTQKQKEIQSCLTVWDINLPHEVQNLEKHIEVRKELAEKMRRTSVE
row,SMILES,IC50 [nM]
1,CCNc1nc(Nc2cn(C(F)(F)C(N)=O)nc2C)ncc1C(F)(F)F [Compound D-101],< 30
2,CCNc1nc(Nc2cnn([C@H]3C[C@H](N4CCCC4=O)C3)c2C)ncc1C(F)(F)F [Compound D-103],< 30
3,CCNc1nc(Nc2cnn(C3CCn4ccnc43)c2Cl)ncc1C(F)(F)F [Compound D-104],< 30
4,Cc1c(Nc2ncc(C(F)(F)F)c(NC3CC3)n2)cnn1[C@H]1C[C@H](n2cccn2)C1 [Compound D-106],< 30
5,CNc1nc(Nc2cnn([C@H]3C[C@H](n4cnc(C)n4)C3)c2C)ncc1C(F)(F)F [Compound D-108],< 30
6,CNc1nc(Nc2cnn([C@H]3C[C@H](n4ncnc4C)C3)c2C)ncc1C(F)(F)F [Compound D-109],< 30
7,CCNc1nc(Nc2cnn(C3CCn4cncc43)c2C)ncc1C(F)(F)F [Compound D-110],< 30
8,CNc1nc(Nc2cnn([C@H]3C[C@H](n4cccn4)C3)c2C)ncc1Br [Compound D-111],< 30
9,CNc1nc(Nc2cnn(C3CCC(n4ccnn4)C3)c2C)ncc1C(F)(F)F [Compound D-112],< 30
10,CCNc1nc(Nc2cn([C@H]3C[C@@H](c4cocn4)C3)nc2C)ncc1C(F)(F)F [Compound D-113],< 30
11,CNc1nc(Nc2cnn(C3CCC(n4nccn4)C3)c2C)ncc1C(F)(F)F [Compound D-114],< 30
12,CNc1nc(Nc2cn(C3(c4ncn(C)n4)CC3)nc2C)ncc1C(F)(F)F [Compound D-115],> 60
13,CCNc1nc(Nc2cnn([C@H]3C[C@H](OC(F)F)C3)c2C)ncc1C(F)(F)F [Compound D-116],< 30
14,CCNc1nc(Nc2cnn([C@H]3C[C@H](n4cncn4)C3)c2C)ncc1C(F)(F)F [Compound D-117],< 30
15,CCNc1nc(Nc2cnn([C@H]3C[C@@H](n4ncnc4C(F)(F)F)C3)c2C)ncc1C(F)(F)F [Compound D-118],< 30
16,Cc1c(Nc2ncc(C(F)(F)F)c(NC3CC3)n2)cnn1[C@H]1C[C@H](n2nccn2)C1 [Compound D-119],< 30
17,CCOc1nc(Nc2cn(C(F)(F)C(N)=O)nc2C)ncc1C(F)(F)F [Compound D-120],< 30
18,CCNc1nc(Nc2cnn([C@H]3C[C@@H](n4ccnn4)C3)c2C)ncc1C(F)(F)F [Compound D-123],< 30
19,CNc1nc(Nc2cnn(C3CCC(n4ccnn4)C3)c2C)ncc1C(F)(F)F [Compound D-124],< 30
20,CNc1nc(Nc2cn(C3CCC(n4ccnn4)C3)nc2C)ncc1C(F)(F)F [Compound D-125],30 to 60
21,CCNc1nc(Nc2cnn(C3CCc4cn[nH]c43)c2C)ncc1C(F)(F)F [Compound D-126],> 60
22,COc1nc(Nc2cn(C3CCn4ccnc43)nc2C)ncc1C(F)(F)F [Compound D-127],< 30
23,CNc1nc(Nc2cnn([C@H]3C[C@H](n4nccn4)C3)c2C)ncc1Br [Compound D-128],< 30
24,COc1nc(Nc2cnn([C@H]3C[C@H](n4nccn4)C3)c2C)ncc1Br [Compound D-129],< 30
25,CCNc1nc(Nc2cn(C3CCc4nc[nH]c43)nc2C)ncc1C(F)(F)F [Compound D-131],< 30
26,CCNc1nc(Nc2cnn([C@H]3C[C@H](n4cnc(C(F)(F)F)n4)C3)c2C)ncc1C(F)(F)F [Compound D-135],< 30
27,CNc1nc(Nc2cn(C3(c4ncn(C)n4)CCC3)nc2C)ncc1C(F)(F)F [Compound D-136],< 30

# The remaining lines, values ahead:
row,IC50 [nM],SMILES
1,< 30,CNc1nc(Nc2cn(C3CCn4ccnc43)nc2C)ncc1C(F)(F)F [Compound D-137]
2,< 30,CCNc1nc(Nc2cn([C@H]3C[C@H](OC(F)F)C3)nc2C)ncc1C(F)(F)F [Compound D-138]
3,< 30,CCNc1nc(Nc2cnn([C@H]3C[C@@H](N4CCCC4=O)C3)c2C)ncc1C(F)(F)F [Compound D-139]
4,< 30,CCNc1nc(Nc2cn(C(F)(F)C(=O)NC3CC3)nc2C)ncc1C(F)(F)F [Compound D-140]
5,< 30,CNc1nc(Nc2cnn(C3(CC#N)CC3)c2C)ncc1C(F)(F)F [Compound D-144]
6,< 30,CCNc1nc(Nc2cnn(C3CCn4nccc43)c2C)ncc1C(F)(F)F [Compound D-145]
7,< 30,CCNc1nc(Nc2cn(C3CCn4nccc43)nc2C)ncc1C(F)(F)F [Compound D-146]
8,< 30,CCNc1nc(Nc2cnn([C@H]3C[C@@H](S(C)(=O)=O)C3)c2C)ncc1C(F)(F)F [Compound D-147]
9,< 30,CCNc1nc(Nc2cnn([C@H]3C[C@@H](n4nccn4)C3)c2C)ncc1C(F)(F)F [Compound D-148]
10,< 30,CNc1nc(Nc2cnn(C3CCn4cncc43)c2C)ncc1C(F)(F)F [Compound D-150]
11,< 30,CCNc1nc(Nc2cnn([C@H]3C[C@H](N4CCOCC4)C3)c2C)ncc1C(F)(F)F [Compound D-153]
12,< 30,CCNc1nc(Nc2cnn([C@H]3C[C@H](n4nccn4)C3)c2C)ncc1Cl [Compound D-154]
13,< 30,CCNc1nc(Nc2cnn(C3(CC#N)CC3)c2C)ncc1C(F)(F)F [Compound D-155]
14,< 30,CNc1nc(Nc2cnn(C3(COC(F)F)CC3)c2C)ncc1C(F)(F)F [Compound D-157]
15,< 30,CNc1nc(Nc2cnn(CC3(CC#N)CC3)c2C)ncc1C(F)(F)F [Compound D-157a]
16,< 30,CCNc1nc(Nc2cnn(CC3(CC#N)CC3)c2C)ncc1C(F)(F)F [Compound D-158]

row,IC50 [nM],SMILES
1,< 30,CNC(=O)C(F)(F)n1cc(Nc2ncc(C(F)(F)F)c(NC)n2)c(C)n1 [Compound D-159]
2,< 30,CCNC(=O)C(F)(F)n1cc(Nc2ncc(C(F)(F)F)c(NC)n2)c(C)n1 [Compound D-160]
3,< 30,CCNc1nc(Nc2cn(C(F)(F)C(=O)O)nc2C)ncc1C(F)(F)F [Compound D-161]
4,< 30,CNc1nc(Nc2cnn([C@H]3C[C@H](n4nccn4)C3)c2C)ncc1C(F)(F)F [Compound D-162]
5,< 30,CCNc1nc(Nc2cn(C(F)(F)C(N)=O)nc2Cl)ncc1C(F)(F)F [Compound D-164]
6,< 30,CNc1nc(Nc2cnn([C@H]3C[C@@H](n4cc(F)cn4)C3)c2C)ncc1C(F)(F)F [Compound D-165]
7,< 30,CNc1nc(Nc2cn([C@H]3C[C@H](c4nncs4)C3)nc2C)ncc1C(F)(F)F [Compound D-167]
8,< 30,CNc1nc(Nc2cnn([C@H]3C[C@H](c4nncs4)C3)c2C)ncc1C(F)(F)F [Compound D-168]
9,> 60,CNc1nc(Nc2cnn(C3CCCn4ccnc43)c2C)ncc1C(F)(F)F [Compound D-169]
10,< 30,COc1nc(Nc2cn(C3(C)CCn4ccnc43)nc2C)ncc1Br [Compound D-178]
11,< 30,COc1nc(Nc2cn(C(F)(F)C(N)=O)nc2C)ncc1Br [Compound D-183]
12,< 30,COc1nc(Nc2cnn([C@H]3C[C@@H](n4nccn4)C3)c2C)ncc1Br [Compound D-184]
13,< 30,CNc1nc(Nc2cnn([C@H]3C[C@@H](n4nccn4)C3)c2C)ncc1Br [Compound D-185]
14,< 30,COc1nc(Nc2cnn([C@H]3C[C@H](n4nccn4)C3)c2C)ncc1Cl [Compound D-186]
15,< 30,CCNc1nc(Nc2cnn([C@H]3C[C@H](N4CCN(C)CC4)C3)c2C)ncc1C(F)(F)F [Compound D-187]
16,< 30,CNc1nc(Nc2cnn([C@H]3C[C@@H](n4cc(F)cn4)C3)c2C)ncc1Br [Compound D-192]
